Assay results as given in the kinase profiling compilation of Christmann-Franck et al. (2016).

Legend:
Assay in all cases: radiometric filter-binding kinase assay, Kinase HotSpot
Settings in all cases: compound 0.5 µM; ATP 10 µM
GSG2 (human) = GSG2 (human) (UniProt Q8TF76)
FLT3 (human) = FLT3 (human) (UniProt P36888)
TEC (human) = TEC (human) (UniProt P42680)
NEK2 (human) = NEK2 (human) (UniProt P51955)
CDK6 CCND3 (human) = CDK6 CCND3 (human) (UniProt P30281+Q00534)
NEK6 (human) = NEK6 (human) (UniProt Q9HC98)
BRSK1 (human) = BRSK1 (human) (UniProt Q8TDC3)
RPS6KA6 KD1 KD2 (human) = RPS6KA6 KD1 KD2 (human) (UniProt Q9UK32)
CSF1R (human) = CSF1R (human) (UniProt P07333)
FRK (human) = FRK (human) (UniProt P42685)
FGFR1 (human) = FGFR1 (human) (UniProt P11362)
TYRO3 (human) = TYRO3 (human) (UniProt Q06418)
MAP3K14 (human) = MAP3K14 (human) (UniProt Q99558)
CAMK2D (human) = CAMK2D (human) (UniProt Q13557)
RAF1 (human) = RAF1 (human) (UniProt P04049)
EPHA2 (human) = EPHA2 (human) (UniProt P29317)
HCK (human) = HCK (human) (UniProt P08631)
RPS6KB1 (human) = RPS6KB1 (human) (UniProt P23443)
CSNK1A1 (human) = CSNK1A1 (human) (UniProt P48729)
DYRK2 (human) = DYRK2 (human) (UniProt Q92630)
MAP2K2 (human) = MAP2K2 (human) (UniProt P36507)
DYRK1B (human) = DYRK1B (human) (UniProt Q9Y463)
DYRK1A (human) = DYRK1A (human) (UniProt Q13627)
CLK1 (human) = CLK1 (human) (UniProt P49759)
RET (human) = RET (human) (UniProt P07949)
PRKD2 (human) = PRKD2 (human) (UniProt Q9BZL6)
SRMS (human) = SRMS (human) (UniProt Q9H3Y6)
BRSK2 (human) = BRSK2 (human) (UniProt Q8IWQ3)
CSNK1G2 (human) = CSNK1G2 (human) (UniProt P78368)
TGFBR2 (human) = TGFBR2 (human) (UniProt P37173)
SRPK1 (human) = SRPK1 (human) (UniProt Q96SB4)
RPS6KA4 KD2 (human) = RPS6KA4 KD2 (human) (UniProt O75676)
MERTK (human) = MERTK (human) (UniProt Q12866)
VRK1 (human) = VRK1 (human) (UniProt Q99986)
PLK3 (human) = PLK3 (human) (UniProt Q9H4B4)
EPHB3 (human) = EPHB3 (human) (UniProt P54753)
DYRK3 (human) = DYRK3 (human) (UniProt O43781)
CDK5 CDK5R1 p35 (human) = CDK5 CDK5R1 p35 (human) (UniProt Q00535+Q15078)
CHEK2 (human) = CHEK2 (human) (UniProt O96017)
ACVR1B (human) = ACVR1B (human) (UniProt P36896)
SRPK2 (human) = SRPK2 (human) (UniProt P78362)
MAP2K1 (human) = MAP2K1 (human) (UniProt Q02750)

SRPK1 (human), sequence (Q96SB4 whole entry, looked up): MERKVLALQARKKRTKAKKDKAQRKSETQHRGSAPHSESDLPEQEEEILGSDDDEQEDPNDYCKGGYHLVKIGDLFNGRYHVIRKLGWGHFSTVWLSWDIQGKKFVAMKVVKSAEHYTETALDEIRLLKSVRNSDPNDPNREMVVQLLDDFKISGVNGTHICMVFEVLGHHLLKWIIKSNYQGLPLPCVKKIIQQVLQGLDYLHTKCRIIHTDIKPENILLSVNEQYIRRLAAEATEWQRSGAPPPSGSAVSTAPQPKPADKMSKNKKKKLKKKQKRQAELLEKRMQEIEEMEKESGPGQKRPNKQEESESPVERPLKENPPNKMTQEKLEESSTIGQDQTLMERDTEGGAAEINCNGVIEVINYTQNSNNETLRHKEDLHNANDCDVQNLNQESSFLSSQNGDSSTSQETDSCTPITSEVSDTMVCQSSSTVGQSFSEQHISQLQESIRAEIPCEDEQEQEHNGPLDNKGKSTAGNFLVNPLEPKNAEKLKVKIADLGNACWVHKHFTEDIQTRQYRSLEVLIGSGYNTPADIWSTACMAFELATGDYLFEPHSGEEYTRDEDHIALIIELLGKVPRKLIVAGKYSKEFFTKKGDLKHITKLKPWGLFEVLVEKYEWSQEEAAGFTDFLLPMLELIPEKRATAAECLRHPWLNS
SRPK2 (human), sequence (P78362 whole entry, looked up): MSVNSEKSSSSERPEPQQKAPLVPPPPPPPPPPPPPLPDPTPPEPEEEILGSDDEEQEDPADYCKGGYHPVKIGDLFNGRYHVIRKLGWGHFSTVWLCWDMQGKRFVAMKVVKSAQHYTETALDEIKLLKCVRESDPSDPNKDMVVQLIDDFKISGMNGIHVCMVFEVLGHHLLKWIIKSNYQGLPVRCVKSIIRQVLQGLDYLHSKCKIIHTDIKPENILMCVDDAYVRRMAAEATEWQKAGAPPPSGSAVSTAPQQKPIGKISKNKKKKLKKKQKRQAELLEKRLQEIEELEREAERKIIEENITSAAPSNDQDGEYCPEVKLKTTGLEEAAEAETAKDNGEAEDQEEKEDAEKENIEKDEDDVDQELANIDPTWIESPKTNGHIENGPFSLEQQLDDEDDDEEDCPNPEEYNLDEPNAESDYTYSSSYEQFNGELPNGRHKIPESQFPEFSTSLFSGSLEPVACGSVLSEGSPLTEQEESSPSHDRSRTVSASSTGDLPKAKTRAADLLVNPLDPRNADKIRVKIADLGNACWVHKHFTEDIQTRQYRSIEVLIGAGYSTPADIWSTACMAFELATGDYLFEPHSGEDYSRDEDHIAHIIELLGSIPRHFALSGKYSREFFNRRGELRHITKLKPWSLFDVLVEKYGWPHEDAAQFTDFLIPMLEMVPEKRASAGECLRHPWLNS
NEK6 (human), sequence (Q9HC98 whole entry, looked up): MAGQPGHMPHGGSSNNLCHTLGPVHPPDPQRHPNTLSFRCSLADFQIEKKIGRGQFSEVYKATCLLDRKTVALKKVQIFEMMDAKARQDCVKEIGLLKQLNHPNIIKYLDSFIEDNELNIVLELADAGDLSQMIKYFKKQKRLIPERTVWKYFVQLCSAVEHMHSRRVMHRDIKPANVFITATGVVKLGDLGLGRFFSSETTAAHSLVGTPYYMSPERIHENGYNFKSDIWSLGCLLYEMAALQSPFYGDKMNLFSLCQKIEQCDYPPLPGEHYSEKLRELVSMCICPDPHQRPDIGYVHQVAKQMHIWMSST
PLK3 (human), sequence (Q9H4B4 whole entry, looked up): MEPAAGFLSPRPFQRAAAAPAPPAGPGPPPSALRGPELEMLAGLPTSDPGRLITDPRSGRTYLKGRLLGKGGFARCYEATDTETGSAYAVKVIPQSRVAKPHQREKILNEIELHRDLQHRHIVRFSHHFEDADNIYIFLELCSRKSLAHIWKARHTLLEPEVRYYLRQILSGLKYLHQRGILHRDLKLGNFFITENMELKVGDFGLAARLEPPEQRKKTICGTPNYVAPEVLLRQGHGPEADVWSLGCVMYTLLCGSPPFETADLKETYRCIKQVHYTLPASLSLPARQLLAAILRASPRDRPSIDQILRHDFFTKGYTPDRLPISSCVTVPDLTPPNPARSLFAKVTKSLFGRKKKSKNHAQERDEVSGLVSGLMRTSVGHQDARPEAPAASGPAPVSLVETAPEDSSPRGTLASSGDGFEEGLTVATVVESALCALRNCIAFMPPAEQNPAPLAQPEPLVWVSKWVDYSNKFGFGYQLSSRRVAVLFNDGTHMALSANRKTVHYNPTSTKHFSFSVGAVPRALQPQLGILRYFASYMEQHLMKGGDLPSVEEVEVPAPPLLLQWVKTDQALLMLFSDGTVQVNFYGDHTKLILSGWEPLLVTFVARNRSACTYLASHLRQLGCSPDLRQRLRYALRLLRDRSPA
TGFBR2 (human), sequence (P37173 whole entry, looked up): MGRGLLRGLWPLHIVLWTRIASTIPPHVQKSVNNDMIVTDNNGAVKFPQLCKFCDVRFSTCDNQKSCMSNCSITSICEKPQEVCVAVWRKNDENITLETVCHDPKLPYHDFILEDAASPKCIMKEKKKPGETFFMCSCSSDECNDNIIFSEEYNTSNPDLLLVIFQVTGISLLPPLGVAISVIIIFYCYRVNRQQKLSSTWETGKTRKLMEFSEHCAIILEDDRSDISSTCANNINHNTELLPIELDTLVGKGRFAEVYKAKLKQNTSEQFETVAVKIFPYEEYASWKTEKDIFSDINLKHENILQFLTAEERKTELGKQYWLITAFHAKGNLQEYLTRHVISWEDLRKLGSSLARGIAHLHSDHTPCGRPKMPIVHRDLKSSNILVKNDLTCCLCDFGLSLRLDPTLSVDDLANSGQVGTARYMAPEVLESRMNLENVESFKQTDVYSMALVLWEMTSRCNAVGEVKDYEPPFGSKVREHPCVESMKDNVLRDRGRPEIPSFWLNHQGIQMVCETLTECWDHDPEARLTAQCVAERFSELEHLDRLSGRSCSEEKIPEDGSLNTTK
DYRK1B (human), sequence (Q9Y463 whole entry, looked up): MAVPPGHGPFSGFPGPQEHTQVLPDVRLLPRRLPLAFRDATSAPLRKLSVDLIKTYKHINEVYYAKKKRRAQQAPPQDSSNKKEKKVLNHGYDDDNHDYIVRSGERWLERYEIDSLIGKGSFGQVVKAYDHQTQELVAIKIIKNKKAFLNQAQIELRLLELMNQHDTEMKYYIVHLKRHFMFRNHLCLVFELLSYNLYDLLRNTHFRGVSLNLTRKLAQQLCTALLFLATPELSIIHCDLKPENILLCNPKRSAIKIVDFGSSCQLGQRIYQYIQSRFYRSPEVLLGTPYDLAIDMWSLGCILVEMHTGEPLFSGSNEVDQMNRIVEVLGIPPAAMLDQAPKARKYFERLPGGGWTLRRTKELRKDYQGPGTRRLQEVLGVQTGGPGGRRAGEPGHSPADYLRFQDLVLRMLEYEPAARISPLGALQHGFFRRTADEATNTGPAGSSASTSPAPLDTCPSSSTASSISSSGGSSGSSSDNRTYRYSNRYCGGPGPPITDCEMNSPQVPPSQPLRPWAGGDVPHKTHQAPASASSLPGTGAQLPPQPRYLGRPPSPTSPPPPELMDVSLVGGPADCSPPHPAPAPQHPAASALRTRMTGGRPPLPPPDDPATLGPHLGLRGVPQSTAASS
RET (human), sequence (P07949 whole entry, looked up): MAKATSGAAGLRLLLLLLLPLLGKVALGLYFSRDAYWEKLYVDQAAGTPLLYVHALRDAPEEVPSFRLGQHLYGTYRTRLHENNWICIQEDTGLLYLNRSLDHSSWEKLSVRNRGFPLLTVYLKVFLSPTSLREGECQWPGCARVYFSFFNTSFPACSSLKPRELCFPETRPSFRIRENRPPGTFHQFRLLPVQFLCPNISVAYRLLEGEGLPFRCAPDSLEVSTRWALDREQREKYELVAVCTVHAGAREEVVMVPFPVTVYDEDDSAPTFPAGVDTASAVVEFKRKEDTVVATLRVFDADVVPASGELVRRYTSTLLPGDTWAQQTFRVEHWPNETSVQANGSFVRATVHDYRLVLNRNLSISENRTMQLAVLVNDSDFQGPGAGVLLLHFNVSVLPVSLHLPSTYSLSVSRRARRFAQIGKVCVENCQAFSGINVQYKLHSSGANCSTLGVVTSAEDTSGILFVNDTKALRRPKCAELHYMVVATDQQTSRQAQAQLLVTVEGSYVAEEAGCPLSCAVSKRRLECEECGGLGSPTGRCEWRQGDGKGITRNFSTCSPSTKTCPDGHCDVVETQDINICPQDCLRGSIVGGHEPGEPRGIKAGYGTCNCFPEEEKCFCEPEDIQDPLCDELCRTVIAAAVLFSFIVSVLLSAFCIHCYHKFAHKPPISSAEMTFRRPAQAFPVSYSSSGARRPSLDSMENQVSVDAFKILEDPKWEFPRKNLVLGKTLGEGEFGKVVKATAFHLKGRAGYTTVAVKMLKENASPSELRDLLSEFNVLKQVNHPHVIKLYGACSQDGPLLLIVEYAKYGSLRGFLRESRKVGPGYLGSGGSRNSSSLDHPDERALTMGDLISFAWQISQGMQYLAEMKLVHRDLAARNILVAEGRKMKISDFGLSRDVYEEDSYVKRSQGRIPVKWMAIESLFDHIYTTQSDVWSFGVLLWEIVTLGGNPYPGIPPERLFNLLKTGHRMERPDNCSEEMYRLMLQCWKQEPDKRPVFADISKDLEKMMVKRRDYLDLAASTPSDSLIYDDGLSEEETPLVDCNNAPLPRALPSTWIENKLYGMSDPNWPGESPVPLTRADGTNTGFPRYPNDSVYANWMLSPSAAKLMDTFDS
MAP2K2 (human), sequence (P36507 whole entry, looked up): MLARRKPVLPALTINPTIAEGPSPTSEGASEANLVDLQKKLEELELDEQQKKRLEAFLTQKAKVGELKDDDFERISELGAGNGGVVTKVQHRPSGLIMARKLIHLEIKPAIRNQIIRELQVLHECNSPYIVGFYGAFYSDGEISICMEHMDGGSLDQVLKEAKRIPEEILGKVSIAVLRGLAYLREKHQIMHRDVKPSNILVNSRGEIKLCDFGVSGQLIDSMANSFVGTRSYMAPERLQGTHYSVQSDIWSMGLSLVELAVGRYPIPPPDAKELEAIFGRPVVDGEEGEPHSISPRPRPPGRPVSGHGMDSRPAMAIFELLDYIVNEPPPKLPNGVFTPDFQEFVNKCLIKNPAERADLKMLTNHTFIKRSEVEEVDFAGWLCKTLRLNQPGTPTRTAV

## O=C(Nc1ccc(Cl)cc1)c1ccccc1NCc1ccncc1
GSG2 (human)
  residual activity: 95.5%
FLT3 (human)
  residual activity: 91.5%
TEC (human)
  residual activity: 134%
NEK2 (human)
  residual activity: 88.4%
CDK6 CCND3 (human)
  residual activity: 86.5%
NEK6 (human)
  residual activity: 97.1%
BRSK1 (human)
  residual activity: 94%
RPS6KA6 KD1 KD2 (human)
  residual activity: 104%
CSF1R (human)
  residual activity: 18.4%
FRK (human)
  residual activity: 62.8%
FGFR1 (human)
  residual activity: 83.7%
TYRO3 (human)
  residual activity: 105%
MAP3K14 (human)
  residual activity: 114%
CAMK2D (human)
  residual activity: 101%
RAF1 (human)
  residual activity: 62.6%
EPHA2 (human)
  residual activity: 101%
HCK (human)
  residual activity: 101%
RPS6KB1 (human)
  residual activity: 92.5%
CSNK1A1 (human)
  residual activity: 88.1%
DYRK2 (human)
  residual activity: 96%
MAP2K2 (human)
  residual activity: 102%
DYRK1B (human)
  residual activity: 106%
DYRK1A (human)
  residual activity: 97.1%
CLK1 (human)
  residual activity: 102%
RET (human)
  residual activity: 58.9%
PRKD2 (human)
  residual activity: 98%
SRMS (human)
  residual activity: 97.9%
BRSK2 (human)
  residual activity: 102%
CSNK1G2 (human)
  residual activity: 88.3%
TGFBR2 (human)
  residual activity: 90.1%
SRPK1 (human)
  residual activity: 109%
RPS6KA4 KD2 (human)
  residual activity: 90.2%
MERTK (human)
  residual activity: 79%
VRK1 (human)
  residual activity: 104%
PLK3 (human)
  residual activity: 98.5%
EPHB3 (human)
  residual activity: 96.9%
DYRK3 (human)
  residual activity: 104%
CDK5 CDK5R1 p35 (human)
  residual activity: 90.4%
CHEK2 (human)
  residual activity: 94.5%
ACVR1B (human)
  residual activity: 95.8%
SRPK2 (human)
  residual activity: 85.1%
MAP2K1 (human)
  residual activity: 96.8%

## Cc1ccc(NC(=O)c2ccc(CN3CCN(C)CC3)cc2)cc1Nc1nc(-c2cccnc2)cs1
GSG2 (human)
  residual activity: 100%
FLT3 (human)
  residual activity: 84.4%
TEC (human)
  residual activity: 83.2%
NEK2 (human)
  residual activity: 96.7%
CDK6 CCND3 (human)
  residual activity: 90.5%
NEK6 (human)
  residual activity: 91.3%
BRSK1 (human)
  residual activity: 102%
RPS6KA6 KD1 KD2 (human)
  residual activity: 103%
CSF1R (human)
  residual activity: 8.38%
FGFR1 (human)
  residual activity: 103%
TYRO3 (human)
  residual activity: 98.9%
MAP3K14 (human)
  residual activity: 91%
CAMK2D (human)
  residual activity: 106%
RAF1 (human)
  residual activity: 77.5%
EPHA2 (human)
  residual activity: 91.2%
HCK (human)
  residual activity: 55.7%
RPS6KB1 (human)
  residual activity: 104%
CSNK1A1 (human)
  residual activity: 98.5%
DYRK2 (human)
  residual activity: 109%
MAP2K2 (human)
  residual activity: 114%
DYRK1B (human)
  residual activity: 95.7%
DYRK1A (human)
  residual activity: 106%
CLK1 (human)
  residual activity: 101%
RET (human)
  residual activity: 96.4%
PRKD2 (human)
  residual activity: 98.2%
SRMS (human)
  residual activity: 92.9%
BRSK2 (human)
  residual activity: 99.9%
CSNK1G2 (human)
  residual activity: 92.9%
TGFBR2 (human)
  residual activity: 101%
SRPK1 (human)
  residual activity: 98.9%
RPS6KA4 KD2 (human)
  residual activity: 101%
MERTK (human)
  residual activity: 109%
VRK1 (human)
  residual activity: 97.4%
PLK3 (human)
  residual activity: 101%
EPHB3 (human)
  residual activity: 80.9%
DYRK3 (human)
  residual activity: 108%
CDK5 CDK5R1 p35 (human)
  residual activity: 100%
CHEK2 (human)
  residual activity: 101%
ACVR1B (human)
  residual activity: 99.8%
SRPK2 (human)
  residual activity: 101%
MAP2K1 (human)
  residual activity: 111%

## O=C1Cc2c([nH]c3ccc([N+](=O)[O-])cc23)-c2ccccc2N1
GSG2 (human)
  residual activity: 106%
FLT3 (human)
  residual activity: 19.7%
TEC (human)
  residual activity: 137%
NEK2 (human)
  residual activity: 92.4%
NEK6 (human)
  residual activity: 97.1%
BRSK1 (human)
  residual activity: 39.7%
RPS6KA6 KD1 KD2 (human)
  residual activity: 38%
CSF1R (human)
  residual activity: 51%
FRK (human)
  residual activity: 97.2%
FGFR1 (human)
  residual activity: 88.6%
TYRO3 (human)
  residual activity: 96.7%
MAP3K14 (human)
  residual activity: 132%
CAMK2D (human)
  residual activity: 79.3%
RAF1 (human)
  residual activity: 114%
EPHA2 (human)
  residual activity: 92.7%
HCK (human)
  residual activity: 71.8%
RPS6KB1 (human)
  residual activity: 103%
CSNK1A1 (human)
  residual activity: 103%
DYRK2 (human)
  residual activity: 72%
MAP2K2 (human)
  residual activity: 92.5%
DYRK1B (human)
  residual activity: 87.5%
DYRK1A (human)
  residual activity: 86.2%
CLK1 (human)
  residual activity: 111%
RET (human)
  residual activity: 81.6%
PRKD2 (human)
  residual activity: 101%
SRMS (human)
  residual activity: 92.9%
BRSK2 (human)
  residual activity: 34.5%
CSNK1G2 (human)
  residual activity: 91.7%
TGFBR2 (human)
  residual activity: 19.4%
SRPK1 (human)
  residual activity: 100%
RPS6KA4 KD2 (human)
  residual activity: 90.6%
MERTK (human)
  residual activity: 83.1%
VRK1 (human)
  residual activity: 90.8%
PLK3 (human)
  residual activity: 98.8%
EPHB3 (human)
  residual activity: 103%
DYRK3 (human)
  residual activity: 99.3%
CDK5 CDK5R1 p35 (human)
  residual activity: 7.98%
CHEK2 (human)
  residual activity: 7.9%
ACVR1B (human)
  residual activity: 109%
SRPK2 (human)
  residual activity: 109%
MAP2K1 (human)
  residual activity: 92.6%

## O=C(NC(NC(=S)Nc1ccc(F)c([N+](=O)[O-])c1)C(Cl)(Cl)Cl)C(c1ccccc1)c1ccccc1 (stereo not given)
GSG2 (human)
  residual activity: 109%
FLT3 (human)
  residual activity: 99.3%
TEC (human)
  residual activity: 201%
NEK2 (human)
  residual activity: 112%
CDK6 CCND3 (human)
  residual activity: 99.3%
NEK6 (human)
  residual activity: 109%
BRSK1 (human)
  residual activity: 98.3%
RPS6KA6 KD1 KD2 (human)
  residual activity: 94.7%
CSF1R (human)
  residual activity: 96.2%
FRK (human)
  residual activity: 103%
FGFR1 (human)
  residual activity: 97.7%
TYRO3 (human)
  residual activity: 108%
MAP3K14 (human)
  residual activity: 92.1%
CAMK2D (human)
  residual activity: 102%
RAF1 (human)
  residual activity: 95.3%
EPHA2 (human)
  residual activity: 103%
HCK (human)
  residual activity: 107%
RPS6KB1 (human)
  residual activity: 91.9%
CSNK1A1 (human)
  residual activity: 94.1%
DYRK2 (human)
  residual activity: 102%
MAP2K2 (human)
  residual activity: 82.3%
DYRK1B (human)
  residual activity: 103%
DYRK1A (human)
  residual activity: 99.8%
CLK1 (human)
  residual activity: 106%
RET (human)
  residual activity: 103%
PRKD2 (human)
  residual activity: 107%
SRMS (human)
  residual activity: 96.9%
BRSK2 (human)
  residual activity: 102%
CSNK1G2 (human)
  residual activity: 98.3%
TGFBR2 (human)
  residual activity: 91.6%
SRPK1 (human)
  residual activity: 99.3%
RPS6KA4 KD2 (human)
  residual activity: 92.7%
MERTK (human)
  residual activity: 96.2%
VRK1 (human)
  residual activity: 96.7%
PLK3 (human)
  residual activity: 94.4%
EPHB3 (human)
  residual activity: 104%
DYRK3 (human)
  residual activity: 100%
CHEK2 (human)
  residual activity: 97.6%
ACVR1B (human)
  residual activity: 106%
SRPK2 (human)
  residual activity: 103%
MAP2K1 (human)
  residual activity: 95.1%
